Experimental data published in article PMC7366829 (Acta biomaterialia, 2020).

Assays:
MelBEc = MelBEc (Escherichia coli, UniProt P02921); assay: Trp to D2G FRET; type: binding; settings: 10 μM D2G; 23 °C; GNG-3,14 extract; active site
MelBSt = MelBSt (Salmonella enterica, UniProt P30878); assay: Trp to D2G FRET; type: binding; settings: 10 μM D2G; 23 °C; DDM or GNG-3,14 extract; active site
β2AR = β2AR (Homo sapiens, UniProt P07550); assay: radioligand binding, G-50 column; settings: 10 nM [3H]-DHA; pH 7.5; 100 mM NaCl; room temperature; antagonist; labelled compound
Sequence of β2AR (P07550 whole entry): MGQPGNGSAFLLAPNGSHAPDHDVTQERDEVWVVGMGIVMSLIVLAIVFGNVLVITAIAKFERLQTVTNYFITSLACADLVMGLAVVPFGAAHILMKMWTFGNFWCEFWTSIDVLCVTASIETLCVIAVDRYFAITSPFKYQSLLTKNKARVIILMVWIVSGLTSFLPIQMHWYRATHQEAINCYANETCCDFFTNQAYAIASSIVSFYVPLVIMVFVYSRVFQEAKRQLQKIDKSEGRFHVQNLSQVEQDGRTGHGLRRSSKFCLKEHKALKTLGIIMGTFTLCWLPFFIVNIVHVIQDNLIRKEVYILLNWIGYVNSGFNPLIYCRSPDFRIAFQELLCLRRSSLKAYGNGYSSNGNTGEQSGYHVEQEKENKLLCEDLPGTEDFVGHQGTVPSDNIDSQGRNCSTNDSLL

Sequence of MelBSt (P30878 whole entry): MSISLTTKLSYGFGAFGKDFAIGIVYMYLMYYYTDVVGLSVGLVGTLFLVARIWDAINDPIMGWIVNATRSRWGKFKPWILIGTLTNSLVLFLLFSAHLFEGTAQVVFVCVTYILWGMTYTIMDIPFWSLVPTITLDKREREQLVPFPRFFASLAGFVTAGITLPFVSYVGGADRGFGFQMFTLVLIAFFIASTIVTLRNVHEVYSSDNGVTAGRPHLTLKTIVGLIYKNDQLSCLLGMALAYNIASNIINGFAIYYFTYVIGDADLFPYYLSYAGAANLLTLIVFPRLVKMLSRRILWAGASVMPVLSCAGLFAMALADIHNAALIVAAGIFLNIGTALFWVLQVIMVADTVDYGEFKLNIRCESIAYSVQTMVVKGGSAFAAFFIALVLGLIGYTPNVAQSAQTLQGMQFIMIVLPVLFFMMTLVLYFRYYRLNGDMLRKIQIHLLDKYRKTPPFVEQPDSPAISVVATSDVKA
Sequence of MelBEc (P02921 2-473): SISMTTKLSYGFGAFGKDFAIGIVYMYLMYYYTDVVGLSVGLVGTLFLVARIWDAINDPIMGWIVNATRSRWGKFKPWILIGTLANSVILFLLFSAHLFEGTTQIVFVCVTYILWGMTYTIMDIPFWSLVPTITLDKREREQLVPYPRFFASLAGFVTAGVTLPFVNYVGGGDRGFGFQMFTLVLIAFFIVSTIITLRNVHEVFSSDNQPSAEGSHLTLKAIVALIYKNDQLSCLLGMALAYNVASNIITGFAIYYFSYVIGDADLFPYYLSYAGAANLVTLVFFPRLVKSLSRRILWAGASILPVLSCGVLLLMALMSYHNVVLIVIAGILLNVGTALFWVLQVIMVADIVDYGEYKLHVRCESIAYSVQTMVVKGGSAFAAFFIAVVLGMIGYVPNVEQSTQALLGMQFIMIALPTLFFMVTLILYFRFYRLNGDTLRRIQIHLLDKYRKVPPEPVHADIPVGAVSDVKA

SMILES	Trp to D2G FRET (MelBEc)	Trp to D2G FRET (MelBSt)	radioligand binding, G-50 column (β2AR)
CN(C)c1cccc2c(S(=O)(=O)NCCS[C@@H]3O[C@H](CO)[C@H](O)[C@H](O)[C@H]3O)cccc12 [D2G, 2’-(N-Dansyl)aminoalkyl-1-thio-β-D-galactopyranoside]	GNG-3,14-extracted MelBEc was functional under the same conditions	DDM or GNG-3,14-extracted MelBSt responded to addition of D^2G and melibiose	
CCCc1ccccc1OCC(O)CNC(C)C (stereo not drawn) [[3H]-dihydroalprenolol]			ligand binding assay using a radio-active antagonist ([^3H]-DHA)
